In a flash point compilation (Sun et al. 2020):

Question: For CCCCCS [1-pentanethiol], which flash point is on record?
Answer: Its flash point is 18 °C.

Question: Which flash point does the source give for CCCCCO [1-pentanol] here?
Answer: The flash point was 49 °C.

Question: With C=CCCC [1-pentene] as the compound, how does the flash point read?
Answer: Its flash point is -51 °C.

Question: With C#CCCC [1-pentyne] as the compound, how does the flash point read?
Answer: Its flash point is -34 °C.

Question: For CCCC(=O)c1ccccc1 [1-phenyl-1-butanone], which flash point is on record?
Answer: The flash point was 88 °C.

Question: For CCC(=O)CCc1ccccc1 [1-phenyl-3-pentanone], which flash point is on record?
Answer: Its flash point is 103 °C.

Question: Which flash point does the source give for C#CCCCCCCCCCCC [1-tridecyne] here?
Answer: The flash point was 93 °C.

Question: Which flash point does the source give for CCCCCCCCCCCO [1-undecanol] here?
Answer: The flash point was 115 °C.

Question: For C#CCCCCCCCCC [1-undecyne], which flash point is on record?
Answer: Its flash point is 65 °C.

Question: Which flash point does the source give for CCC(C)(C)C(C)(C)C [2,2,3,3-tetramethylpentane] here?
Answer: Its flash point is 16 °C.

Question: Which flash point does the source give for CCC(C)C(C)C(C)(C)C (stereo not drawn) [2,2,3,4-tetramethylhexane] here?
Answer: Its flash point is 31 °C.

Question: With CC(C)C(C)(C)C [2,2,3-trimethylbutane] as the compound, how does the flash point read?
Answer: Its flash point is -24 °C.

Question: For CC(CC(C)(C)C)CC(C)(C)CC(C)(C)C (stereo not drawn) [2,2,4,4,6,8,8-heptamethylnonane], which flash point is on record?
Answer: Its flash point is 95 °C.

Question: For CC(C)(C)CC(C)(C)C [2,2,4,4-tetramethylpentane], which flash point is on record?
Answer: The flash point was 6 °C.

Question: Which flash point does the source give for CC(C)CCC(C)(C)C [2,2,5-trimethylhexane] here?
Answer: Its flash point is 13 °C.

Question: For CC(C)(Cl)Cl [2,2-dichloropropane], which flash point is on record?
Answer: Its flash point is -5 °C.

Question: With CCC(C)(C)C [2,2-dimethylbutane] as the compound, how does the flash point read?
Answer: Its flash point is -29 °C.

Question: With CC1(C)CCCC1=O [2,2-dimethylcyclopentanone] as the compound, how does the flash point read?
Answer: The flash point was 33 °C.

Question: With CCCCCC(C)(C)C [2,2-dimethylheptane] as the compound, how does the flash point read?
Answer: Its flash point is 24 °C.

Question: For C=C(C)C(C)(C)C [2,3,3-trimethyl-1-butene], which flash point is on record?
Answer: The flash point was -17 °C.

Question: For CCCC(C)(C)C(C)C [2,3,3-trimethylhexane], which flash point is on record?
Answer: The flash point was 15 °C.

Question: Which flash point does the source give for CC(C)C(C)C(C)C(C)C (stereo not drawn) [2,3,4,5-tetramethylhexane] here?
Answer: The flash point was 31 °C.

Question: Which flash point does the source give for CC(C)C(C)C(C)C [2,3,4-trimethylpentane] here?
Answer: The flash point was -0 °C.

Question: With CC(C)CC(C)C(C)C (stereo not drawn) [2,3,5-trimethylhexane] as the compound, how does the flash point read?
Answer: The flash point was 15 °C.

Question: For CC(=O)C(C)=O [2,3-butanedione], which flash point is on record?
Answer: Its flash point is 10 °C.

Question: With OCC(Cl)CCl (stereo not drawn) [2,3-dichloro-1-propanol] as the compound, how does the flash point read?
Answer: The flash point was 93 °C.

Question: With CC1=CCCO1 [2,3-dihydro-5-methylfuran] as the compound, how does the flash point read?
Answer: The flash point was -12 °C.

Question: With C1=COCC1 [2,3-dihydrofuran] as the compound, how does the flash point read?
Answer: The flash point was -24 °C.

Question: For C=C(C)C(C)CC (stereo not drawn) [2,3-dimethyl-1-pentene], which flash point is on record?
Answer: Its flash point is -17 °C.

Question: For Cc1cccc(N)c1C [2,3-dimethylaniline], which flash point is on record?
Answer: Its flash point is 96 °C.

Question: Which flash point does the source give for CCCC(C)C(C)C (stereo not drawn) [2,3-dimethylhexane] here?
Answer: The flash point was 5 °C.

Question: Which flash point does the source give for CCCCCC(C)C(C)C (stereo not drawn) [2,3-dimethyloctane] here?
Answer: Its flash point is 36 °C.

Question: Which flash point does the source give for CCC(C)(C)CC(C)C [2,4,4-trimethylhexane] here?
Answer: The flash point was 15 °C.

Question: With CC(C)CC(C)CC(C)C [2,4,6-trimethylheptane] as the compound, how does the flash point read?
Answer: Its flash point is 31 °C.

Question: Which flash point does the source give for Cc1cc(C)nc(C)c1 [2,4,6-trimethylpyridine] here?
Answer: The flash point was 54 °C.

Question: Which flash point does the source give for CCCC(C)CC(C)C (stereo not drawn) [2,4-dimethylheptane] here?
Answer: Its flash point is 15 °C.

Question: With Cc1ccc(O)c(C)c1 [2,4-dimethylphenol] as the compound, how does the flash point read?
Answer: Its flash point is 94 °C.

Question: Which flash point does the source give for Cc1ccnc(C)c1 [2,4-dimethylpyridine] here?
Answer: Its flash point is 47 °C.

Question: With CC(=O)CC(C)=O [2,4-pentanedione] as the compound, how does the flash point read?
Answer: The flash point was 38 °C.

Question: Which flash point does the source give for CCC(C)CCC(C)C (stereo not drawn) [2,5-dimethylheptane] here?
Answer: The flash point was 15 °C.

Question: For CC(=O)CCC(C)=O [2,5-hexanedione], which flash point is on record?
Answer: Its flash point is 78 °C.

Question: For CC(C)CCCC(C)C [2,6-dimethylheptane], which flash point is on record?
Answer: The flash point was 26 °C.

Question: With CCC(C)S (stereo not drawn) [2-butanethiol] as the compound, how does the flash point read?
Answer: Its flash point is -23 °C.

Question: For CCCCOCCO [2-butoxyethanol], which flash point is on record?
Answer: Its flash point is 62 °C.

Question: Which flash point does the source give for CCCCOCCOC(C)=O [2-butoxyethylacetate] here?
Answer: Its flash point is 71 °C.

Question: Which flash point does the source give for CC1=CC2C(CC1)C2(C)C (stereo not drawn) [2-carene] here?
Answer: Its flash point is 38 °C.

Question: With CC(Cl)CO (stereo not drawn) [2-chloro-1-propanol] as the compound, how does the flash point read?
Answer: Its flash point is 51 °C.

Question: For CCC(C)Cl (stereo not drawn) [2-chlorobutane], which flash point is on record?
Answer: The flash point was -15 °C.
